In PubChem BioAssay AID2060908 (Molecular Pharmacology Branch, DTP, NCI, 2025):

Tested on: 186277-243-T-J2-PDC complex spheroids, viability
Experiment: Anticancer human tumor 186277-243-T-J2-PDC patient-derived colon adenocarcinoma cell line growth inhibition [RAS]
Conditions: for IC50: curve of first compound; for viability, T/C: stronger effect = lower value
In short: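 Agents were tested in combination matrices in half-log decrements from a top concentration at or near clinical Cmax (10 microM if undetermined). Targets were multi-cell spheroids of tumour lines plus HUVEC and MSC stromal cells.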

[1] = second compound 0.000949 µM, first compound 0.000949 µM
[2] = second compound 0.000949 µM, first compound 0.003 µM
[3] = second compound 0.000949 µM, first compound 0.00949 µM
[4] = second compound 0.000949 µM, first compound 0.03 µM
[5] = second compound 0.000949 µM, first compound 0.0949 µM
[6] = second compound 0.000949 µM, first compound 0.3 µM
[7] = second compound 0.003 µM, first compound 0.000949 µM
[8] = second compound 0.003 µM, first compound 0.003 µM
[9] = second compound 0.003 µM, first compound 0.00949 µM
[10] = second compound 0.003 µM, first compound 0.03 µM
[11] = second compound 0.003 µM, first compound 0.0949 µM
[12] = second compound 0.003 µM, first compound 0.3 µM
[13] = second compound 0.00949 µM, first compound 0.000949 µM
[14] = second compound 0.00949 µM, first compound 0.003 µM
[15] = second compound 0.00949 µM, first compound 0.00949 µM
[16] = second compound 0.00949 µM, first compound 0.03 µM
[17] = second compound 0.00949 µM, first compound 0.0949 µM
[18] = second compound 0.00949 µM, first compound 0.3 µM
[19] = second compound 0.03 µM, first compound 0.000949 µM
[20] = second compound 0.03 µM, first compound 0.003 µM
[21] = second compound 0.03 µM, first compound 0.00949 µM
[22] = second compound 0.03 µM, first compound 0.03 µM
[23] = second compound 0.03 µM, first compound 0.0949 µM
[24] = second compound 0.03 µM, first compound 0.3 µM
[25] = second compound 0.0949 µM, first compound 0.000949 µM
[26] = second compound 0.0949 µM, first compound 0.003 µM
[27] = second compound 0.0949 µM, first compound 0.00949 µM
[28] = second compound 0.0949 µM, first compound 0.03 µM
[29] = second compound 0.0949 µM, first compound 0.0949 µM
[30] = second compound 0.0949 µM, first compound 0.3 µM
[31] = second compound 0.3 µM, first compound 0.000949 µM
[32] = second compound 0.3 µM, first compound 0.003 µM
[33] = second compound 0.3 µM, first compound 0.00949 µM
[34] = second compound 0.3 µM, first compound 0.03 µM
[35] = second compound 0.3 µM, first compound 0.0949 µM
[36] = second compound 0.3 µM, first compound 0.3 µM
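Further: spheroids exposed to compounds for 7 days before viability read.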

Compound: C=CC(=O)N1CCN(c2nc(OCC3CCCN3C)nc3c(F)c(-c4nc(N)cc(C)c4C(F)(F)F)c(Cl)cc23)C(C)C1 (stereo unspecified) + CCn1c(-c2cccnc2C(C)OC)c2c3cc(ccc31)N1CCOC(CC(NC(=O)C(C(C)C)N(C)C(=O)C3(F)CCN(C(=O)C#CC(C)(C)N(C)C)CC3)C(=O)N3CCCC(N3)C(=O)OCC(C)(C)C2)C1
- IC50 (second compound 0.000949 µM): > 1000 nM
- IC50 (second compound 0.003 µM): > 1000 nM
- IC50 (second compound 0.00949 µM): > 1000 nM
- IC50 (second compound 0.03 µM): > 1000 nM
- IC50 (second compound 0.0949 µM): > 1000 nM
- IC50 (second compound 0.3 µM): > 1000 nM
- viability, T/C (second compound 0.000949 µM, first compound 0.00316 µM): 88.7%
- viability, T/C (second compound 0.000949 µM, first compound 0.01 µM): 79%
- viability, T/C (second compound 0.000949 µM, first compound 0.0316 µM): 89.2%
- viability, T/C (second compound 0.000949 µM, first compound 0.1 µM): 80.8%
- viability, T/C (second compound 0.000949 µM, first compound 0.316 µM): 95.6%
- viability, T/C (second compound 0.000949 µM, first compound 1 µM): 96.6%
- viability, T/C (second compound 0.003 µM, first compound 0.00316 µM): 88%
- viability, T/C (second compound 0.003 µM, first compound 0.01 µM): 97.6%
- viability, T/C (second compound 0.003 µM, first compound 0.0316 µM): 83.4%
- viability, T/C (second compound 0.003 µM, first compound 0.1 µM): 102%
- viability, T/C (second compound 0.003 µM, first compound 0.316 µM): 94.1%
- viability, T/C (second compound 0.003 µM, first compound 1 µM): 111%
- viability, T/C (second compound 0.00949 µM, first compound 0.00316 µM): 91.6%
- viability, T/C (second compound 0.00949 µM, first compound 0.01 µM): 102%
- viability, T/C (second compound 0.00949 µM, first compound 0.0316 µM): 104%
- viability, T/C (second compound 0.00949 µM, first compound 0.1 µM): 106%
- viability, T/C (second compound 0.00949 µM, first compound 0.316 µM): 98.6%
- viability, T/C (second compound 0.00949 µM, first compound 1 µM): 98.3%
- viability, T/C (second compound 0.03 µM, first compound 0.00316 µM): 81.4%
- viability, T/C (second compound 0.03 µM, first compound 0.01 µM): 105%
- viability, T/C (second compound 0.03 µM, first compound 0.0316 µM): 95.8%
- viability, T/C (second compound 0.03 µM, first compound 0.1 µM): 107%
- viability, T/C (second compound 0.03 µM, first compound 0.316 µM): 116%
- viability, T/C (second compound 0.03 µM, first compound 1 µM): 91.7%
- viability, T/C (second compound 0.0949 µM, first compound 0.00316 µM): 85.3%
- viability, T/C (second compound 0.0949 µM, first compound 0.01 µM): 109%
- viability, T/C (second compound 0.0949 µM, first compound 0.0316 µM): 121%
- viability, T/C (second compound 0.0949 µM, first compound 0.1 µM): 106%
- viability, T/C (second compound 0.0949 µM, first compound 0.316 µM): 95.6%
- viability, T/C (second compound 0.0949 µM, first compound 1 µM): 93.7%
- viability, T/C (second compound 0.3 µM, first compound 0.00316 µM): 98.2%
- viability, T/C (second compound 0.3 µM, first compound 0.01 µM): 93.7%
- viability, T/C (second compound 0.3 µM, first compound 0.0316 µM): 111%
- viability, T/C (second compound 0.3 µM, first compound 0.1 µM): 97.5%
- viability, T/C (second compound 0.3 µM, first compound 0.316 µM): 114%
- viability, T/C (second compound 0.3 µM, first compound 1 µM): 99.7%

Compound: CC1(C)CCC(Nc2ncc(C(F)(F)F)c(-c3c[nH]c4c(P(C)(C)=O)c(C#N)ccc34)n2)CN1 (stereo unspecified) + CCn1c(-c2cccnc2C(C)OC)c2c3cc(ccc31)N1CCOC(CC(NC(=O)C(C(C)C)N(C)C(=O)C3(F)CCN(C(=O)C#CC(C)(C)N(C)C)CC3)C(=O)N3CCCC(N3)C(=O)OCC(C)(C)C2)C1
- IC50 (second compound 0.000949 µM): > 300 nM
- IC50 (second compound 0.003 µM): 236 nM
- IC50 (second compound 0.00949 µM): > 300 nM
- IC50 (second compound 0.03 µM): > 300 nM
- IC50 (second compound 0.0949 µM): 135 nM
- IC50 (second compound 0.3 µM): 36.1 nM
- viability, T/C [1]: 79.3%
- viability, T/C [2]: 84.8%
- viability, T/C [3]: 112%
- viability, T/C [4]: 81.5%
- viability, T/C [5]: 57.9%
- viability, T/C [6]: 51.6%
- viability, T/C [7]: 100%
- viability, T/C [8]: 90.2%
- viability, T/C [9]: 103%
- viability, T/C [10]: 83.5%
- viability, T/C [11]: 58.6%
- viability, T/C [12]: 47.4%
- viability, T/C [13]: 104%
- viability, T/C [14]: 104%
- viability, T/C [15]: 103%
- viability, T/C [16]: 85.6%
- viability, T/C [17]: 56.3%
- viability, T/C [18]: 50.5%
- viability, T/C [19]: 92%
- viability, T/C [20]: 98.6%
- viability, T/C [21]: 108%
- viability, T/C [22]: 85.1%
- viability, T/C [23]: 57.9%
- viability, T/C [24]: 49.7%
- viability, T/C [25]: 107%
- viability, T/C [26]: 103%
- viability, T/C [27]: 91.9%
- viability, T/C [28]: 71.1%
- viability, T/C [29]: 53.3%
- viability, T/C [30]: 43.3%
- viability, T/C [31]: 102%
- viability, T/C [32]: 96.3%
- viability, T/C [33]: 87.8%
- viability, T/C [34]: 51.9%
- viability, T/C [35]: 36.8%
- viability, T/C [36]: 30.8%

Compound: CCc1c2c(nc3ccc(O)cc13)-c1cc3c(c(=O)n1C2)COC(=O)[C@]3(O)CC + CCn1c(-c2cccnc2C(C)OC)c2c3cc(ccc31)N1CCOC(CC(NC(=O)C(C(C)C)N(C)C(=O)C3(F)CCN(C(=O)C#CC(C)(C)N(C)C)CC3)C(=O)N3CCCC(N3)C(=O)OCC(C)(C)C2)C1
- IC50 (second compound 0.000949 µM): 9.82 nM
- IC50 (second compound 0.003 µM): 13.6 nM
- IC50 (second compound 0.00949 µM): 11.1 nM
- IC50 (second compound 0.03 µM): 10.2 nM
- IC50 (second compound 0.0949 µM): 7.53 nM
- IC50 (second compound 0.3 µM): 2.85 nM
- viability, T/C [1]: 157%
- viability, T/C [2]: 83.7%
- viability, T/C [3]: 52.5%
- viability, T/C [4]: 35.5%
- viability, T/C [5]: 17.3%
- viability, T/C [6]: 12.1%
- viability, T/C [7]: 142%
- viability, T/C [8]: 91.9%
- viability, T/C [9]: 55.8%
- viability, T/C [10]: 37.4%
- viability, T/C [11]: 18.2%
- viability, T/C [12]: 12.9%
- viability, T/C [13]: 142%
- viability, T/C [14]: 85.4%
- viability, T/C [15]: 53.8%
- viability, T/C [16]: 34.4%
- viability, T/C [17]: 15.9%
- viability, T/C [18]: 12.1%
- viability, T/C [19]: 139%
- viability, T/C [20]: 80.6%
- viability, T/C [21]: 54.1%
- viability, T/C [22]: 33%
- viability, T/C [23]: 17%
- viability, T/C [24]: 12.2%
- viability, T/C [25]: 102%
- viability, T/C [26]: 68.6%
- viability, T/C [27]: 48%
- viability, T/C [28]: 25%
- viability, T/C [29]: 15.1%
- viability, T/C [30]: 10.3%
- viability, T/C [31]: 69.7%
- viability, T/C [32]: 47.5%
- viability, T/C [33]: 34%
- viability, T/C [34]: 17.7%
- viability, T/C [35]: 10.5%
- viability, T/C [36]: 8.49%
